Values of other authors, collected in US20200390965A1, “TAILORED DOSE OF CONTRAST AGENT” (GE HEALTHCARE AS, priority 2017, published 2020).

Settings: powder form; aggregates dissolve very slowly

Row | solubility in water | SMILES
1 | highly soluble in water | CC(=O)N(CC(O)CN(C(C)=O)c1c(I)c(C(=O)NCC(O)CO)c(I)c(C(=O)NCC(O)CO)c1I)c1c(I)c(C(=O)NCC(O)CO)c(I)c(C(=O)NCC(O)CO)c1I (centres unmarked) [iodixanol]
2 | highly soluble in water | CC(=O)N(CC(O)CO)c1c(I)c(C(=O)NCC(O)CO)c(I)c(C(=O)NCC(O)CO)c1I (centres unmarked) [iohexol]
